ChEMBL document CHEMBL1201862, “PubChem BioAssay data set” (2004)
Calls of active or inactive are those of the source.

What was measured:
[1] = target: Cyclin-dependent kinase 2 (Homo sapiens, UniProt P24941); format: functional;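 also: CDK2 measured as one member of a broad kinome profiling panel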
[2] = target: Cyclin-dependent kinase 5 (Homo sapiens, UniProt Q00535); format: functional;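 also: CDK5 measured as one member of a kinase profiling panel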
[3] = target: Calcium/calmodulin-dependent protein kinase type 1 (Homo sapiens, UniProt Q14012); format: functional
[4] = target: Mitogen-activated protein kinase 13 (Homo sapiens, UniProt O15264); format: functional
[5] = target: Hepatocyte growth factor receptor (Homo sapiens, UniProt P08581); format: functional;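 also: kinase panel profiling across the kinome, with MET as the panel member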
LIM domain kinase 1 = LIM domain kinase 1 (Homo sapiens, UniProt P53667); assay: Navigating the Kinome. Panel member name: LIMK1; format: functional
Ephrin type-A receptor 2 = Ephrin type-A receptor 2 (Homo sapiens, UniProt P29317); format: functional;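 also: EPHA2 tested as one member of a kinome-wide kinase panel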
[6] = target: Inhibitor of nuclear factor kappa-B kinase subunit alpha (Homo sapiens, UniProt O15111); format: functional
[7] = target: Epidermal growth factor receptor (Homo sapiens, UniProt P00533)
[8] = target: Rho-associated protein kinase 2 (Homo sapiens, UniProt O75116); format: functional
[9] = target: Serine/threonine-protein kinase D2 (Homo sapiens, UniProt Q9BZL6); format: functional;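 also: measured against PRKD2 as one member of a kinome-wide kinase profiling panel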
[10] = target: MAP/microtubule affinity-regulating kinase 3 (Homo sapiens, UniProt P27448); format: functional;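 also: MARK3 affinity measured as one member of a kinome panel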
[11] = target: Fibroblast growth factor receptor 3 (Homo sapiens, UniProt P22607); format: functional
[12] = target: Proto-oncogene tyrosine-protein kinase Src (Homo sapiens, UniProt P12931); format: functional;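 also: SRC entry within a kinome-wide kinase profiling panel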
[13] = target: Receptor tyrosine-protein kinase erbB-2 (Homo sapiens, UniProt P04626); assay: Navigating the Kinome. Panel member name: ERBB2; format: functional
[14] = target: Receptor tyrosine-protein kinase erbB-4 (Homo sapiens, UniProt Q15303); format: functional;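 also: ERBB4 member of a kinome-wide kinase profiling panel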
[15] = target: Serine/threonine-protein kinase Chk1 (Homo sapiens, UniProt O14757); format: functional;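 also: measured as one member of a kinome-wide kinase profiling panel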
[16] = target: RAC-gamma serine/threonine-protein kinase (Homo sapiens, UniProt Q9Y243); format: functional
[17] = target: Mitogen-activated protein kinase 1 (Homo sapiens, UniProt P28482); format: functional
[18] = target: MAP kinase-activated protein kinase 2 (Homo sapiens, UniProt P49137); format: functional;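 also: measured as one member of a kinome-wide kinase panel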
[19] = target: Tyrosine-protein kinase ITK/TSK (Homo sapiens, UniProt Q08881); format: functional;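 also: affinity for ITK measured as one member of a broad kinase panel profiling binding across the kinome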
[20] = target: Serine/threonine-protein kinase PLK3 (Homo sapiens, UniProt Q9H4B4); format: functional
[21] = target: Cyclin-dependent kinase 1 (Homo sapiens, UniProt P06493); format: functional;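 also: Kinome-wide panel profiling, with the target listed as panel member CDC2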
[22] = target: MAP kinase-activated protein kinase 3 (Homo sapiens, UniProt Q16644); format: functional;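 also: value comes from a kinome-wide profiling panel in which MAPKAPK3 is one of the panel members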
[23] = target: Inhibitor of nuclear factor kappa-B kinase subunit beta (Homo sapiens, UniProt O14920); format: functional
[24] = target: Non-receptor tyrosine-protein kinase TYK2 (Homo sapiens, UniProt P29597); format: functional
Focal adhesion kinase 1 = Focal adhesion kinase 1 (Homo sapiens, UniProt Q05397); format: functional;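 also: measured as one member of a kinome panel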
[25] = target: Cyclin-dependent kinase 7 (Homo sapiens, UniProt P50613); format: functional;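 also: value comes from a kinome-wide kinase profiling panel in which CDK7 is one member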
[26] = target: Platelet-derived growth factor receptor beta (Homo sapiens, UniProt P09619); format: functional;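 also: value comes from a kinome panel, with PDGFRB tested as one panel member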
Activin receptor type-1 = Activin receptor type-1 (Homo sapiens, UniProt Q04771); assay: Navigating the Kinome. Panel member name: ACVR1; format: functional
[27] = target: Calcium/calmodulin-dependent protein kinase type II subunit delta (Homo sapiens, UniProt Q13557); format: functional
[28] = target: Serine/threonine-protein kinase TBK1 (Homo sapiens, UniProt Q9UHD2); assay: Navigating the Kinome. Panel member name: TBK1; format: functional
Activated CDC42 kinase 1 = Activated CDC42 kinase 1 (Homo sapiens, UniProt Q07912); assay: Navigating the Kinome. Panel member name: ACK1; format: functional
[29] = target: Dual specificity tyrosine-phosphorylation-regulated kinase 1B (Homo sapiens, UniProt Q9Y463); assay: Navigating the Kinome. Panel member name: DYRK1B; format: functional
Misshapen-like kinase 1 = Misshapen-like kinase 1 (Homo sapiens, UniProt Q8N4C8); format: functional;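 also: kinome panel screen with MINK as the panel member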
[30] = target: Cell division cycle 7-related protein kinase (Homo sapiens, UniProt O00311); format: functional;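 also: value obtained from a kinome-wide kinase panel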
[31] = target: Mitogen-activated protein kinase 14 (Homo sapiens, UniProt Q16539); format: functional;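 also: part of a kinome-wide panel, MAPK14 entry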
[32] = target: Protein kinase C theta type (Homo sapiens, UniProt Q04759); assay: Navigating the Kinome. Panel member name: PRKCQ; format: functional
[33] = target: Leukocyte tyrosine kinase receptor (Homo sapiens, UniProt P29376); assay: Navigating the Kinome. Panel member name: LTK; format: functional
[34] = target: Dual specificity mitogen-activated protein kinase kinase 2 (Homo sapiens, UniProt P36507); assay: Navigating the Kinome. Panel member name: MAP2K2; format: functional
[35] = target: Inhibitor of nuclear factor kappa-B kinase subunit epsilon (Homo sapiens, UniProt Q14164); assay: Navigating the Kinome. Panel member name: IKBKE; format: functional
[36] = target: Homeodomain-interacting protein kinase 2 (Homo sapiens, UniProt Q9H2X6); format: functional;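 also: measured within a kinome-wide kinase profiling panel, HIPK2 being one panel member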
[37] = target: Serine/threonine-protein kinase TAO1 (Homo sapiens, UniProt Q7L7X3); format: functional
[38] = target: Dual specificity protein kinase CLK4 (Homo sapiens, UniProt Q9HAZ1); format: functional
[39] = target: Serine/threonine-protein kinase 17A (Homo sapiens, UniProt Q9UEE5); format: functional
[40] = target: Leucine-rich repeat serine/threonine-protein kinase 2 (Homo sapiens, UniProt Q5S007); format: functional;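 also: value from a broad kinome-wide panel profiling study in which LRRK2 was one of the kinases tested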
[41] = target: Serine/threonine-protein kinase D3 (Homo sapiens, UniProt O94806); format: functional;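 also: determined within a kinase panel screen, with PRKCN as the panel member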

Chain of MAP/microtubule affinity-regulating kinase 3 (P27448 whole entry): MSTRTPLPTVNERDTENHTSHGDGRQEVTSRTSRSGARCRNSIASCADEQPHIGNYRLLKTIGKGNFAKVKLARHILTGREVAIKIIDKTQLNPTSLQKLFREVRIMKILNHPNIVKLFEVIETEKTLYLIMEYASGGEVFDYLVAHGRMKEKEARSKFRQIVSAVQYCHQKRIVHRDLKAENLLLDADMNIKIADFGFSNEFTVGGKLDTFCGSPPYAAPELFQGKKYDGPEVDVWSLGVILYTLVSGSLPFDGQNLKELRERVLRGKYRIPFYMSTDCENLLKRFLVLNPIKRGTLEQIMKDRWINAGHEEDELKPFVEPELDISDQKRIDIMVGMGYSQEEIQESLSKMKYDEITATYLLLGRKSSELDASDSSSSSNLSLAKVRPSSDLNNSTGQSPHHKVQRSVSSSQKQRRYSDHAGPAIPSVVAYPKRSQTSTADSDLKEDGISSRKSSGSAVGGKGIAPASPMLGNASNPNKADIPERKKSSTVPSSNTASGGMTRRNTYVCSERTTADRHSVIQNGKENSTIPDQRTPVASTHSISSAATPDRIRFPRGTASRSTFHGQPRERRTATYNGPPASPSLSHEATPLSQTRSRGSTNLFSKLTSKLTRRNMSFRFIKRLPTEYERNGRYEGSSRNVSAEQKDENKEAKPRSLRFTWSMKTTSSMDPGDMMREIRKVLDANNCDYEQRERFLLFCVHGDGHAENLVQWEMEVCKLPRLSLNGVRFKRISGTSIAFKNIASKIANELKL
Chain of Epidermal growth factor receptor (P00533 whole entry): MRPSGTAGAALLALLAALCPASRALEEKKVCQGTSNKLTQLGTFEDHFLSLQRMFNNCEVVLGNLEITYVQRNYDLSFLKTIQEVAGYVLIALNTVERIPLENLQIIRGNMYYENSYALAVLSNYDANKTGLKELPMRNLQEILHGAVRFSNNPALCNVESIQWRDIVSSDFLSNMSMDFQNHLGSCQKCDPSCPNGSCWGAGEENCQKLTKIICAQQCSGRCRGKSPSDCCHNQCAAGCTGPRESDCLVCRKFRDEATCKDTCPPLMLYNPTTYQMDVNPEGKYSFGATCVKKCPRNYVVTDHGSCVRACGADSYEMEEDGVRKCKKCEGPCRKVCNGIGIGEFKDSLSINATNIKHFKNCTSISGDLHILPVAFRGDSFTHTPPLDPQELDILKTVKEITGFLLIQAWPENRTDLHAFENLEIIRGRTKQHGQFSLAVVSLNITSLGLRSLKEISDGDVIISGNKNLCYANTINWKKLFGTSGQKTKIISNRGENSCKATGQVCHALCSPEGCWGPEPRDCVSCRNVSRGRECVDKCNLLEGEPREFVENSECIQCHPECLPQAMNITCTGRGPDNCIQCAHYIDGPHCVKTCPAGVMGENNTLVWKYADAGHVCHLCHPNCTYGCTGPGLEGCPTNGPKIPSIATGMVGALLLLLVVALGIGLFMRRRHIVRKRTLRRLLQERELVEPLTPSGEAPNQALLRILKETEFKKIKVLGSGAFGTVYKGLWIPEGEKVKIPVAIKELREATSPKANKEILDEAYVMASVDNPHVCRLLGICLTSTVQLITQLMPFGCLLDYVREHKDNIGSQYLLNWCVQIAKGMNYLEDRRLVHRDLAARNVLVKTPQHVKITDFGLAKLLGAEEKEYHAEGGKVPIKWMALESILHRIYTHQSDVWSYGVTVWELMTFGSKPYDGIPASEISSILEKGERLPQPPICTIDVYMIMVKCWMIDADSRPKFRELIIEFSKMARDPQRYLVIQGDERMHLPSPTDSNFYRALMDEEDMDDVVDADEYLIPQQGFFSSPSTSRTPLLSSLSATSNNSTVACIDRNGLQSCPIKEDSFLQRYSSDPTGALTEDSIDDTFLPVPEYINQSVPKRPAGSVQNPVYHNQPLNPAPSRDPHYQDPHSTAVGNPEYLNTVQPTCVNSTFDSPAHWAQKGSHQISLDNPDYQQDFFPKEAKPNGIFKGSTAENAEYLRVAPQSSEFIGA
Chain of Inhibitor of nuclear factor kappa-B kinase subunit alpha (O15111 whole entry): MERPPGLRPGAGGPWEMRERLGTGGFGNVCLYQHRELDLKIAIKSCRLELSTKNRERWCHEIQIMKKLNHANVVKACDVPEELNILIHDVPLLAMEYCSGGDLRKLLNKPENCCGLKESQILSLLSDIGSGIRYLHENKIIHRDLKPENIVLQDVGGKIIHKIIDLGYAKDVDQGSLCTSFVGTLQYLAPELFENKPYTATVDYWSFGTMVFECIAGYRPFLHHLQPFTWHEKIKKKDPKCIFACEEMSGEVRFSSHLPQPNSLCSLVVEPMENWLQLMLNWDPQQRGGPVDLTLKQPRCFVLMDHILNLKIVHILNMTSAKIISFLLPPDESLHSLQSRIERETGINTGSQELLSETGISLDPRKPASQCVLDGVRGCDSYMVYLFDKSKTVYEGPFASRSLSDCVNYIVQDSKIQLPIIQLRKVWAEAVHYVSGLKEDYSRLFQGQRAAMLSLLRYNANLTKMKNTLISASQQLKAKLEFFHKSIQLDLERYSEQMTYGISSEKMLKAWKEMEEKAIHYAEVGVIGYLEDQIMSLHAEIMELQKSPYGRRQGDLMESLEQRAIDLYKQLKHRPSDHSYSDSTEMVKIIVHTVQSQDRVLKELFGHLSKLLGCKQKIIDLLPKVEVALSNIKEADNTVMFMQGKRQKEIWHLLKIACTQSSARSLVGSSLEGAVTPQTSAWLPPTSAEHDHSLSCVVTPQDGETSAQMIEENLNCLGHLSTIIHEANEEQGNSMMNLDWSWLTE
Chain of Serine/threonine-protein kinase Chk1 (O14757 whole entry): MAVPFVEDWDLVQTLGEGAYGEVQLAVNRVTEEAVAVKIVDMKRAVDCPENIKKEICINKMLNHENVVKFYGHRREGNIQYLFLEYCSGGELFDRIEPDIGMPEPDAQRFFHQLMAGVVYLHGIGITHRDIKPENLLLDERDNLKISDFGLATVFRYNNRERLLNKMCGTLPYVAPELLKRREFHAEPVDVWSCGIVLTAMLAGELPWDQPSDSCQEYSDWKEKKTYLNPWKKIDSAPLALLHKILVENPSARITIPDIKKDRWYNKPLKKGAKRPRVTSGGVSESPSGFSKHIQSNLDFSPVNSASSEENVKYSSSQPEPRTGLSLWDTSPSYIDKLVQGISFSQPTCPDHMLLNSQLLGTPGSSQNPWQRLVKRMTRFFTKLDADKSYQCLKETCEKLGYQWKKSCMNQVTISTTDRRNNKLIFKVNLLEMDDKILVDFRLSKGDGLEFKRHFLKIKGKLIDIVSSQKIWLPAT
Chain of Serine/threonine-protein kinase D2 (Q9BZL6 whole entry): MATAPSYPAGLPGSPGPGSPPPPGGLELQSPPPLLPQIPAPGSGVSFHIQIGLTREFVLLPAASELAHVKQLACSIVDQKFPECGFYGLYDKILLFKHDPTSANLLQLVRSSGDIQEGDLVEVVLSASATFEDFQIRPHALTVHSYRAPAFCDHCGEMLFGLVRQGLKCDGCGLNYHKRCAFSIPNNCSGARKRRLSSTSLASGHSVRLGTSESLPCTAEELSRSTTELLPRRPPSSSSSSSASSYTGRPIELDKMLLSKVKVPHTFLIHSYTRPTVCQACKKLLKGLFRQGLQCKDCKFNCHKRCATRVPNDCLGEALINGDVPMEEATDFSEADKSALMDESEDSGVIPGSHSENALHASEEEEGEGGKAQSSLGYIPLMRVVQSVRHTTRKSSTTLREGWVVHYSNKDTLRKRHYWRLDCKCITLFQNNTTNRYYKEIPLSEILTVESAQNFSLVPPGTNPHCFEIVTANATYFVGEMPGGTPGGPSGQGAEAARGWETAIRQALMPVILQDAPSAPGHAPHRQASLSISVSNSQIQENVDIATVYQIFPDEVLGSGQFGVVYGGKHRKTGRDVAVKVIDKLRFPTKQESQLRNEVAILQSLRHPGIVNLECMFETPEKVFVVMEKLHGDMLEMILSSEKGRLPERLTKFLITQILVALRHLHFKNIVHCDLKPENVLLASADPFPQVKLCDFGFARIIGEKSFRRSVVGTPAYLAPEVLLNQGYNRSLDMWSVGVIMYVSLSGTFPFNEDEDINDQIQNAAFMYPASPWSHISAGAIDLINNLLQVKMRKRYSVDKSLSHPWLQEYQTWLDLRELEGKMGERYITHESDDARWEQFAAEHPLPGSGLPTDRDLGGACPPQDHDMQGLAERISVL
Chain of Cell division cycle 7-related protein kinase (O00311 whole entry): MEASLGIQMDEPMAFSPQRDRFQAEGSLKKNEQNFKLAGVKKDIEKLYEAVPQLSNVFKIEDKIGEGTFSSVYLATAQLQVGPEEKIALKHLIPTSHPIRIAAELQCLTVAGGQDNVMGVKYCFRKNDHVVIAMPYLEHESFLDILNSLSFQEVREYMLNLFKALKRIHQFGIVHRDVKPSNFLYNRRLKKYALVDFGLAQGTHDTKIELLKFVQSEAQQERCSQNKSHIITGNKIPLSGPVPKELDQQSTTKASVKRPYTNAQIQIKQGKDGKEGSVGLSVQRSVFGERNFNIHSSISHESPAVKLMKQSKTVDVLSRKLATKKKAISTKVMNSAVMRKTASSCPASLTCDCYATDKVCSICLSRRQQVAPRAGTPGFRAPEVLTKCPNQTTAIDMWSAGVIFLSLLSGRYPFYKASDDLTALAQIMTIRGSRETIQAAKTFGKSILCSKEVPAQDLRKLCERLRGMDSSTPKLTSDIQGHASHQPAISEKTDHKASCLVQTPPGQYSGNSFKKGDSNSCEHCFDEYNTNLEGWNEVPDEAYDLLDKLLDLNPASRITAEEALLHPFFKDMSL
Chain of Calcium/calmodulin-dependent protein kinase type 1 (Q14012 whole entry): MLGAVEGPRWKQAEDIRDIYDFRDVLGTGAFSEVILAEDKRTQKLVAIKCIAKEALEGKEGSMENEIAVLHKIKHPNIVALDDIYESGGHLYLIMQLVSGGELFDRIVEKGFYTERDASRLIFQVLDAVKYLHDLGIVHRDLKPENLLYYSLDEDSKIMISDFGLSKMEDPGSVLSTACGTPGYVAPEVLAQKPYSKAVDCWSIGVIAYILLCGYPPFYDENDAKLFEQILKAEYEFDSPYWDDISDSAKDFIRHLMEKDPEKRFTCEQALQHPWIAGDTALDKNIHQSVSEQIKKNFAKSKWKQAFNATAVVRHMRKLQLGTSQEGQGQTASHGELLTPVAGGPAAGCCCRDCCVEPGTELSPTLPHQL

For NC(COc1cncc(-c2cc3ccncc3s2)c1)Cc1c[nH]c2ccccc12 (configuration not stated), the Ki [1] was 158 nM (active), the Ki [2] was 316 nM (active) and the Ki [3] was 3160 nM (active). For the same compound, the Ki [4] was 7940 nM (active), the Ki [5] was > 3160 nM (inactive) and the Ki (LIM domain kinase 1) was 794 nM (active). The Ki (Ephrin type-A receptor 2) was > 3160 nM (inactive), the Ki [6] was > 3980 nM (inactive) and the Ki [7] was 1580 nM (active). For the same compound, the Ki [8] was 10 nM (active), the Ki [9] was 316 nM (active) and the Ki [10] was 398 nM (active). For the same compound, the Ki [11] was > 2000 nM (inactive), the Ki [12] was > 2510 nM (inactive) and the Ki [13] was > 1580 nM (inactive). For the same compound, the Ki [14] was > 3980 nM (inactive), the Ki [15] was 3980 nM (active) and the Ki [16] was 25.1 nM (active). For the same compound, the Ki [17] was 251 nM (active), the Ki [18] was > 7940 nM (inactive) and the Ki [19] was > 1580 nM (inactive). For the same compound, the Ki [20] was 794 nM (active), the Ki [21] was 158 nM (active) and the Ki [22] was > 10000 nM (inactive). For the same compound, the Ki [23] was > 3160 nM (inactive) and the Ki [24] was > 2000 nM (inactive).
In the case of CN(C)C1CCC(Nc2nc(Cl)cc(-c3c[nH]c4ncccc34)n2)CC1 (configuration not stated), the Ki (Focal adhesion kinase 1) is reported as > 6310 nM (inactive), the Ki [25] is reported as 100 nM (active) and the Ki [26] is reported as 1000 nM (active). The Ki (Activin receptor type-1) was 2510 nM (active), the Ki [27] was 1260 nM (active) and the Ki [28] was 2000 nM (active). The Ki (Activated CDC42 kinase 1) was > 3980 nM (inactive), the Ki [29] was 25.1 nM (active) and the Ki (Misshapen-like kinase 1) was 31.6 nM (active). The Ki [30] was 0.316 nM (active), the Ki [31] was > 3980 nM (inactive) and the Ki [32] was 7.94 nM (active). The Ki [33] was 501 nM (active), the Ki [34] was 316 nM (active) and the Ki [35] was 2510 nM (active). The Ki [36] was 63.1 nM (active), the Ki [37] was > 6310 nM (inactive) and the Ki [38] was 2.51 nM (active). For the same compound, the Ki [39] was 126 nM (active), the Ki [40] was 15.8 nM (active) and the Ki [41] was 15.8 nM (active).
